Test results published in patent US7179597B2, “Genetic diagnosis for QT prolongation related adverse drug reactions” (Georgetown University, priority 2000, dated 2007).
“Also recorded” adds a separate entry of the source. Like-named read-outs stand apart in the source and are kept apart here.

Key:
[1] = cited from earlier work
[2] = cited from earlier work; remark: listed apart in the source
CYP2C19 = CYP2C19 (Homo sapiens, UniProt P33261); settings: Table 3; cited from earlier work
CYP3A = settings: Table 3; cited from earlier work
CYP2D6 = CYP2D6 (Homo sapiens, UniProt P10635); settings: Table 3; cited from earlier work
CYP2C9 = CYP2C9 (Homo sapiens, UniProt P11712); settings: Table 3; cited from earlier work
healthy volunteers = test: ECG QTc assessment after ibutilide infusion in healthy volunteers; type: in vivo, human
Protocol: ECG analysis is one method of assessing arrhythmias, such as prolonged QT intervals. Ibutilide or any other pharmaceutical agent to be studied, can be assessed using an ECG. […] All ECGs were 12 lead and were recorded on a computer disc and on paper at a speed of 50 mm/sec, with the subject in a stationary, resting, supine position.

[3] = Table 2, FDA / medical literature

Sequence of CYP2D6 (P10635 whole entry): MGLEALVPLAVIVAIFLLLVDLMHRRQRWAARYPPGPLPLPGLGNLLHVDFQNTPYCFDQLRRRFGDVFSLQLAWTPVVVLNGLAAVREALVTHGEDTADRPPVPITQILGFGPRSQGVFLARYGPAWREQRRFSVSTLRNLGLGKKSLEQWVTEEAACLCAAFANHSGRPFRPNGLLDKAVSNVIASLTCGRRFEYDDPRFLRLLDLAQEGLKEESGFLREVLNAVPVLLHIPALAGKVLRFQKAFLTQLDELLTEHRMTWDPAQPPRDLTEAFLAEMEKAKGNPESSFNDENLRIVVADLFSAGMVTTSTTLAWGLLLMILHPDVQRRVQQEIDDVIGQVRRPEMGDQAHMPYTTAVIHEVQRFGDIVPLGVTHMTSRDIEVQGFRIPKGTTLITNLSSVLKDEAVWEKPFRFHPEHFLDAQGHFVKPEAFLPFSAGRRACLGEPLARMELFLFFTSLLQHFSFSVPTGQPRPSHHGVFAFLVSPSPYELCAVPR
Sequence of CYP2C19 (P33261 whole entry): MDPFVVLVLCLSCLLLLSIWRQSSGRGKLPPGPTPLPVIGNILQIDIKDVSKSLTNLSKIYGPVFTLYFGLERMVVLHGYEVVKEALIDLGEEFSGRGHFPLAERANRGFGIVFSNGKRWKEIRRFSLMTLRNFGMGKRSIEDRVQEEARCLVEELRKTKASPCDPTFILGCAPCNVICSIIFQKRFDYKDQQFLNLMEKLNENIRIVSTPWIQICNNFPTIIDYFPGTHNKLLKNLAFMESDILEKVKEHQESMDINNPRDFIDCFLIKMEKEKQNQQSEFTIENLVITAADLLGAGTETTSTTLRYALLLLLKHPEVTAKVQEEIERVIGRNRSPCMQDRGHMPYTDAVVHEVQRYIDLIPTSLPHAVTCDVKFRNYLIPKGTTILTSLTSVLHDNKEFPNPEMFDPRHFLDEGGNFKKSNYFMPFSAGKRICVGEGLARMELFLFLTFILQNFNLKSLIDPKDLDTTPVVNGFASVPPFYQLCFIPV
Sequence of CYP2C9 (P11712 whole entry, the tested form may be a part): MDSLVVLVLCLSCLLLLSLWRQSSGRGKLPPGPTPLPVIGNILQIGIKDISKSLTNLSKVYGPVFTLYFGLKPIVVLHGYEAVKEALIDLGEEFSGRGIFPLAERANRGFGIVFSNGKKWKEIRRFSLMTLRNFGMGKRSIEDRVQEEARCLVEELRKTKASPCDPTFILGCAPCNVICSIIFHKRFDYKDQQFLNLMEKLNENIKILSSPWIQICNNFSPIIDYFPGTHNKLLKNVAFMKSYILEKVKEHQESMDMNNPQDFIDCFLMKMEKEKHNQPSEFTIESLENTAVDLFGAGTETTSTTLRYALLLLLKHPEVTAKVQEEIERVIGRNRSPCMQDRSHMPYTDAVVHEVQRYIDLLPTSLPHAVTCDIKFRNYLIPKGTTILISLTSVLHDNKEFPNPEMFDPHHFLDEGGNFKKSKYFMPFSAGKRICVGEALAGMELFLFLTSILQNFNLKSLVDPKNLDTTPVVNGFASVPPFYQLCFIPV

SMILES | TdP [1, 3] | QT ([2]; Table 2, drug labeling) | other results
N=C(N)c1ccc(OCCCCCOc2ccc(C(=N)N)cc2)cc1 [Pentamidine] | Yes |  | 
Cc1nc2n(c(=O)c1CCN1CCC(c3noc4cc(F)ccc34)CC1)CCCC2 [Risperidone] | Yes | Yes | TdP ([1]; Table 3): Yes; QT ([2]; Table 3): Yes
CNS(=O)(=O)CCc1ccc2[nH]cc(C3CCN(C)CC3)c2c1 [Naratriptan] |  | Yes | 
CN1CCN(CCCN2c3ccccc3Sc3ccc(C(F)(F)F)cc32)CC1 [Trifluoperazine] | Yes | Yes | 
CC(=O)N1CCN(c2ccc(OCC3COC(Cn4ccnc4)(c4ccc(Cl)cc4Cl)O3)cc2)CC1 (centres unmarked) [Ketoconazole] |  |  | Interactions: cytochrome P-450 isoform 2C19, substrate or inhibitor (CYP2C19): Inhibitor; Interactions: cytochrome P-450 isoform 3A, substrate or inhibitor (CYP3A): Inhibitor
CCCCN(CCCC)CCC(O)c1cc2c(Cl)cc(Cl)cc2c2cc(C(F)(F)F)ccc12 (centres unmarked) [Halofantrine] |  | Yes | Interactions: cytochrome P-450 isoform 2D6, substrate or inhibitor (CYP2D6): Inhibitor; QT ([2]; Table 3): Yes
CNCCC(Oc1ccc(C(F)(F)F)cc1)c1ccccc1 (centres unmarked) [Fluoxetine] |  | Yes | Interactions: cytochrome P-450 isoform 2C9, substrate or inhibitor (CYP2C9): Substrate; QT ([2]; Table 3): Yes; Interactions: cytochrome P-450 isoform 2C19, substrate or inhibitor (CYP2C19): Inhibitor; Interactions: cytochrome P-450 isoform 3A, substrate or inhibitor (CYP3A): Inhibitor
CC[C@H]1OC(=O)[C@H](C)[C@@H](O[C@H]2C[C@@](C)(OC)[C@@H](O)[C@H](C)O2)[C@H](C)[C@@H](O[C@@H]2O[C@H](C)C[C@H](N(C)C)[C@H]2O)[C@](C)(OC)C[C@@H](C)C(=O)[C@H](C)[C@@H](O)[C@]1(C)O [Clarithromycin] |  | Yes | QT ([2]; Table 3): Yes
CNCCCN1c2ccccc2CCc2ccccc21 [Desipramine] |  | Yes | Interactions: cytochrome P-450 isoform 2D6, substrate or inhibitor (CYP2D6): Substrate; QT ([2]; Table 3): Yes
C=C[C@H]1C[N@@]2CC[C@H]1C[C@@H]2[C@@H](O)c1ccnc2ccc(OC)cc12 [Quinidine] | Yes | Yes | TdP ([1]; Table 3): Yes; QT ([2]; Table 3): Yes; Interactions: cytochrome P-450 isoform 3A, substrate or inhibitor (CYP3A): Substrate
CN1CCC[C@@H]1CCO[C@](C)(c1ccccc1)c1ccc(Cl)cc1 [Clemastine] | Maybe— |  | TdP ([1]; Table 3): Maybe—
CC[C@H]1OC(=O)[C@H](C)[C@@H](O[C@H]2C[C@@](C)(OC)[C@@H](O)[C@H](C)O2)[C@H](C)[C@@H](O[C@@H]2O[C@H](C)C[C@H](N(C)C)[C@H]2O)[C@](C)(O)C[C@@H](C)C(=O)[C@H](C)[C@@H](O)[C@]1(C)O [Erythromycin] |  | Yes | QT ([2]; Table 3): Yes
CC1Cc2ccccc2N1NC(=O)c1ccc(Cl)c(S(N)(=O)=O)c1 (centres unmarked) [Indapamide] | Maybe— | Yes | 
CCN(CC)CCNC(=O)c1ccc(N)cc1 [Procainamide] |  | Yes | 
CCOC(=O)Nc1ccc2c(c1)N(C(=O)CCN1CCOCC1)c1ccccc1S2 [Moricizine] | Yes |  | 
C[C@]12CCC(=O)C=C1CC[C@H]1[C@@H]3CC[C@](O)(C(=O)CO)[C@@]3(C)C[C@H](O)[C@@]12F [Fludrocortisone] |  | Yes | 
CCCCc1oc2ccccc2c1C(=O)c1cc(I)c(OCCN(CC)CC)c(I)c1 [Amiodarone] | Yes |  | TdP ([1]; Table 3): Yes
CC(C)COCC(CN(Cc1ccccc1)c1ccccc1)N1CCCC1 (centres unmarked) [Bepridil] | Yes | Yes | 
CN1CCCC(n2nc(Cc3ccc(Cl)cc3)c3ccccc3c2=O)CC1 (centres unmarked) [Azelastine] |  | Yes | 
OCCN1CCN(CCCN2c3ccccc3Sc3ccc(Cl)cc32)CC1 [Perphenazine] |  | Yes | 
CN(C)CCCN1c2ccccc2Sc2ccc(Cl)cc21 [Chlorpromazine] | Yes | Yes | 
CC(C)N(CCC(C(N)=O)(c1ccccc1)c1ccccn1)C(C)C (centres unmarked) [Disopyramide] | Yes | Yes | 
COc1cc(N)c(Cl)cc1C(=O)NC1CCN(CCCOc2ccc(F)cc2)CC1OC (centres unmarked) [Cisapride] | Yes | Yes | TdP ([1]; Table 3): Yes; QT ([2]; Table 3): Yes; Interactions: cytochrome P-450 isoform 3A, substrate or inhibitor (CYP3A): Substrate
CN(C)CCCN1c2ccccc2CCc2ccccc21 [Imipramine] |  | Yes | QT ([2]; Table 3): Yes
Clc1ccc2nsnc2c1NC1=NCCN1 [Tizanidine] |  | Yes | 
O=c1[nH]c2ccccc2n1C1CCN(CCCC(c2ccc(F)cc2)c2ccc(F)cc2)CC1 [Pimozide] | Yes | Yes | 

SMILES | TdP [1, 3] | QT ([2]; Table 2, drug labeling) | other results
OCCN1CCN(CCCN2c3ccccc3Sc3ccc(C(F)(F)F)cc32)CC1 [Fluphenazine] | Yes | Yes | TdP ([1]; Table 3): Yes; QT ([2]; Table 3): Yes
CN(C)CCc1c[nH]c2ccc(C[C@H]3COC(=O)N3)cc12 [Zolmitriptan] |  | Yes | 
OCc1cc(C(O)CNCCCCCCOCCCCc2ccccc2)ccc1O (centres unmarked) [Salmeterol] |  | Yes | 
CN1CCN(CC/C=C2/c3ccccc3Sc3ccc(S(=O)(=O)N(C)C)cc32)CC1 [Thiothixene] | Yes | Yes | 
COC(=O)C1=C(C)NC(C)=C(C(=O)OC(C)C)C1c1cccc2nonc12 (centres unmarked) [Isradipine] |  | Yes | 
OC(Cn1cncn1)(Cn1cncn1)c1ccc(F)cc1F [Fluconazole] |  |  | Interactions: cytochrome P-450 isoform 2C9, substrate or inhibitor (CYP2C9): Inhibitor; Interactions: cytochrome P-450 isoform 3A, substrate or inhibitor (CYP3A): Inbibilor
COc1ccc(CCN2CCC(Nc3nc4ccccc4n3Cc3ccc(F)cc3)CC2)cc1 [Astemizole] | Yes | Yes | TdP ([1]; Table 3): Yes; QT ([2]; Table 3): Yes; Interactions: cytochrome P-450 isoform 3A, substrate or inhibitor (CYP3A): Substrate
CC(C)NCC(O)c1ccc(NS(C)(=O)=O)cc1 (centres unmarked) [Sotalol] |  | Yes | 
Clc1ccc2c(c1)C(N1CCNCC1)=Nc1ccccc1O2 [Amoxapine] |  | Yes | 
CNS(=O)(=O)Cc1ccc2[nH]cc(CCN(C)C)c2c1 [Sumatriptan] |  | Yes | 
C[C@@H]1CN(c2c(F)c(N)c3c(=O)c(C(=O)O)cn(C4CC4)c3c2F)C[C@H](C)N1 [Sparfloxacin] | Yes | Yes | 
CNCCC=C1c2ccccc2CCc2ccccc21 [Nortriptyline] |  | Yes | 
OCCOCCN1CCN(C2=Nc3ccccc3Sc3ccccc32)CC1 [Quetiapine] |  | Yes | 
CN(C)CCC=C1c2ccccc2COc2ccccc21 [Doxepin] | Yes | Yes | 
O=C1NC(c2ccccc2)(c2ccccc2)C(=O)N1COP(=O)(O)O [Fosphenytoin] |  | Yes | 
COC(=O)C1=C(C)NC(C)=C(C(=O)OCCN(C)Cc2ccccc2)C1c1cccc([N+](=O)[O-])c1 (centres unmarked) [Nicardipine] |  | Yes | 
O=C(O)P(=O)(O)O [Foscarnet] |  | Yes | 
CCC(C)n1ncn(-c2ccc(N3CCN(c4ccc(OCC5COC(Cn6cncn6)(c6ccc(Cl)cc6Cl)O5)cc4)CC3)cc2)c1=O (centres unmarked) [Itraconazole] |  |  | Interactions: cytochrome P-450 isoform 3A, substrate or inhibitor (CYP3A): Inhibitor
CNCCCC12CCC(c3ccccc31)c1ccccc12 [Maprotiline] | Yes | Yes | 
O=C(NCC1CCCCN1)c1cc(OCC(F)(F)F)ccc1OCC(F)(F)F (centres unmarked) [Flecainide] |  | Yes | Interactions: cytochrome P-450 isoform 2D6, substrate or inhibitor (CYP2D6): Substrate; QT ([2]; Table 3): Yes
COc1ccc(C(CN(C)C)C2(O)CCCCC2)cc1 (centres unmarked) [Venlafaxine] |  | Yes | Interactions: cytochrome P-450 isoform 2D6, substrate or inhibitor (CYP2D6): Substrate; QT ([2]; Table 3): Yes
CNCCCC1c2ccccc2C=Cc2ccccc21 [Protriptyline] |  | Yes | QT ([2]; Table 3): Yes
CCCCCCCN(CC)CCCC(O)c1ccc(NS(C)(=O)=O)cc1 (centres unmarked) [Ibutilide] | Yes | Yes | Duration of QTc prolonging effect (healthy volunteers; 0.003 mg/kg intravenous single dose): almost dissipated by the end of two hours; Mean QTc prolongation over time (AUC, 60 minutes after infusion) (healthy volunteers; men versus women by menstrual phase, p<0.05): significantly smaller in men than in women; also recorded: significantly lower for women during the luteal phase and for men; Maximal change in QTc interval after infusion (healthy volunteers; men, 0.003 mg/kg intravenous single dose): 54 ± 28 ms; Maximal change in QTc interval after infusion (healthy volunteers; women, luteal phase, 0.003 mg/kg intravenous single dose): 53 ± 14 ms; Maximal change in QTc interval after infusion (healthy volunteers; women, menstrual phase, 0.003 mg/kg intravenous single dose): 63 ± 13 ms; Maximal change in QTc interval after infusion (healthy volunteers; women, ovulation phase, 0.003 mg/kg intravenous single dose): 59 ± 17 ms
NC(=O)OCC(COC(N)=O)c1ccccc1 [Felbamate] | Yes | Yes? | TdP ([1]; Table 3): Yes; QT ([2]; Table 3): Yes; Interactions: cytochrome P-450 isoform 2C19, substrate or inhibitor (CYP2C19): Inhibitor
Cc1cccc(C)c1NC(=O)C(C)N (centres unmarked) [Tocainide] |  | Yes | 
